Measurements published in US20260001871A1, “TRIAZOLE DERIVATIVES AS MODULATORS OF MAS-RELATED G-PROTEIN RECEPTOR D” (ESCIENT PHARMACEUTICALS, INC., priority 2022, published 2026).

Molecular target: human MRGPRD (Homo sapiens, UniProt Q8TDS7)
Assay: MRGPRD antagonist activity, IP-One HTRF assay in CHO cells stably expressing human MRGPRD (versus 100 μM β-Alanine agonist)
Assay type: cell-based
Method in brief: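 CHO cells stably expressing human MRGPRD, plated overnight at 37 °C, were treated with antagonist plus agonist in Tris-HCl/NaCl/LiCl buffer pH 8, incubated 1 h at 37 °C then 1 h at room temperature. IP-1 accumulation read by HTRF; IC50 and percent antagonism of maximum efficacy averaged, SEM reported.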

human MRGPRD, sequence (Q8TDS7 whole entry): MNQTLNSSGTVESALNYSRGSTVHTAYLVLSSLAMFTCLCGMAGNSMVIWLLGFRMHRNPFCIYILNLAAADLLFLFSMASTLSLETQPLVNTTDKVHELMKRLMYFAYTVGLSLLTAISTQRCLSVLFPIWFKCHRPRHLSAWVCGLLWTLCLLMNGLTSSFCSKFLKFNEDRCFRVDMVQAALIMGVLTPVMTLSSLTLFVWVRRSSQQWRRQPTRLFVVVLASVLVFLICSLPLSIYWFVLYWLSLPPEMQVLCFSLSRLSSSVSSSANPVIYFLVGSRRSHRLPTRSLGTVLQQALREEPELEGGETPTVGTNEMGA

Cc1cc(NC(=O)c2nnn(-c3ccc(-c4c(C)nn(C)c4C)cc3)c2C2CC2)ccn1 [Compound 7-12, 5-cyclopropyl-N-(2-methylpyridin-4-yl)-1-(4-(1,3,5-trimethyl-1H-pyrazol-4-yl)phenyl)-1H-1,2,3-triazole-4-carboxamide]
IC50: < 0.1 µM

O=C(Nc1ccncc1)c1nnn(-c2ccc(-c3cnn(Cc4ccccc4)c3)cc2)c1C1CC1 [Compound 7-20]
IC50: < 0.1 µM

O=C(Nc1ccncc1)c1nnn(-c2ccc(-c3cnn(C(F)F)c3)cc2)c1C1CC1 [Compound 7-137]
IC50: 0.5 to 1 µM

Cc1nn2cccnc2c1-c1ccc(-n2nnc(C(=O)Nc3ccc(NS(C)(=O)=O)cc3)c2C2CC2)cc1 [Compound 10-7]
IC50: 1 to 3 µM

Cn1ncc(CO)c1-c1ccc(-n2nnc(C(=O)Nc3ccncc3)c2C2CC2)cc1 [Compound 7-192]
IC50: 1 to 3 µM

Cc1ccc(CNC(=O)c2nnn(-c3ccc(-c4ccc(C#N)nc4)cc3)c2C(C)C)cn1 [Compound 17-33]
IC50: 1 to 3 µM

O=C(Nc1ccncc1)c1nnn(-c2ccc(-c3n[nH]c4cnccc34)cc2)c1C1CC1 [Compound 7-165]
IC50: 1 to 3 µM

Cc1ccc(CNC(=O)c2nnn(-c3ccc(-c4ccc(C#N)cc4)cc3)c2C2CC2)cn1 [Compound 15-3]
IC50: 0.5 to 1 µM

Nc1cc(-c2ccc(-n3nnc(C(=O)Nc4ccncc4)c3C3CC3)cc2)n[nH]1 [Compound 7-5]
IC50: > 3 µM

Cc1nn(-c2ccccc2)cc1-c1cccc(-n2nnc(C(=O)Nc3ccncc3)c2C2CC2)c1 [Compound 7-281]
IC50: 0.5 to 1 µM

O=C(Nc1ccncc1)c1nnn(-c2ccc(C3CCCC3)cc2)c1C1CC1 [Compound 2-11]
IC50: 1 to 3 µM

Cc1cc(NC(=O)c2nnn(-c3ccc(-c4ccc(C#N)cc4C)cc3)c2C2CC2)ccn1 [Compound 7-52]
IC50: 0.1 to 0.5 µM

Cc1nocc1-c1ccc(-n2nnc(C(=O)Nc3ccncc3)c2C2CC2)cc1 [Compound 7-57]
IC50: 0.1 to 0.5 µM

COc1cc(NC(=O)c2nnn(-c3ccc(-c4ccccc4)cc3)c2C2CC2)ccn1 [Compound 14-50]
IC50: 1 to 3 µM

CCn1cc(CNC(=O)c2nnn(-c3ccc(-c4ccc(F)cc4)cc3)c2C2CC2)cn1 [Compound 17-7]
IC50: 1 to 3 µM

CC(NC(=O)c1nnn(-c2ccc(-c3ccc(CC#N)cc3)cc2)c1C1CC1)c1cnn(C)c1 (stereo not drawn) [Compound 15-9]
IC50: > 3 µM

CCn1nc(C)c(-c2ccc(-n3nnc(C(=O)NCc4cncc(C)c4)c3C3CC3)cc2)c1C [Compound 9-19]
IC50: 0.1 to 0.5 µM

Cc1[nH]nc(-c2ccc(-n3nnc(C(=O)Nc4ccncc4)c3C3CC3)cc2)c1Cl [Compound 7-128]
IC50: 0.5 to 1 µM

CCn1cc(CNC(=O)c2nnn(-c3ccc(-c4ccc(C#N)cc4)cc3)c2C2CC2)cn1 [Compound 17-4]
IC50: 0.1 to 0.5 µM

Cc1cc(NC(=O)c2nnn(-c3ccc(-c4c(C)nn(CC(F)(F)F)c4C)cc3F)c2C2CC2)ccn1 [Compound 7-222]
IC50: < 0.1 µM

Cn1ncc(-c2ccc(-n3nnc(C(=O)Nc4ccncc4)c3C3CC3)cc2)n1 [Compound 7-78]
IC50: 0.1 to 0.5 µM

Cc1cc(NC(=O)c2nnn(-c3ccc(-c4ccccc4)cc3)c2C2CC2)ccn1 [Compound 7-76]
IC50: 0.1 to 0.5 µM

Cc1cc(NC(=O)c2nnn(-c3ccc(-c4c(C)nn(-c5ccccc5)c4C)cc3F)c2C2CC2)ccn1 [Compound 7-223]
IC50: < 0.1 µM

CCc1ccc(C2(NC(=O)c3nnn(-c4ccc(-c5c(C)nn6cccnc56)cc4)c3C3CC3)CC2)cn1 [Compound 10-8]
IC50: 1 to 3 µM

O=C(Nc1ccncc1)c1nnn(-c2ccc(-c3cnn(CC(F)(F)F)c3)cc2)c1C1CC1 [Compound 7-123]
IC50: 0.5 to 1 µM

O=C(Nc1ccncc1)c1nnn(-c2ccc3ccccc3c2)c1C1CC1 [Compound 5-3]
IC50: 0.5 to 1 µM

CCc1cc(NC(=O)c2nnn(-c3ccc(-c4c(C)nn5cccnc45)cc3)c2C2CC2)ccn1 [Compound 10-4]
IC50: 0.1 to 0.5 µM

Cn1nc(-c2ccc(-n3nnc(C(=O)Nc4ccncc4)c3C3CC3)cc2)cc1-c1ccccc1 [Compound 7-111]
IC50: 0.1 to 0.5 µM

CC(C)(C)n1cc(-c2ccc(-n3nnc(C(=O)Nc4ccncc4)c3C3CC3)cc2)cn1 [Compound 7-142]
IC50: 0.5 to 1 µM

O=C(Nc1ccncc1)c1nnn(-c2ccc(-c3ccc4c(c3)CCC4)cc2)c1C1CC1 [Compound 7-64]
IC50: 0.1 to 0.5 µM

O=C(Nc1ccncc1)c1nnn(-c2ccc(-c3cscn3)cc2)c1C1CC1 [Compound 7-176]
IC50: 1 to 3 µM

CC(=O)c1ccc(-c2ccc(-n3nnc(C(=O)Nc4ccncc4)c3C3CC3)cc2)c(C)c1 [Compound 7-42]
IC50: 0.1 to 0.5 µM

COc1cc(-c2c(C)nn(C)c2C)ccc1-n1nnc(C(=O)NCc2ccc(C)nc2)c1C1CC1 [Compound 21-2]
IC50: 0.1 to 0.5 µM

O=C(Nc1cnn(C2CC2)c1)c1nnn(-c2ccc(-c3ccccc3)cc2)c1C1CC1 [Compound 14-87]
IC50: > 3 µM

Cc1c2c(NC(=O)c3nnn(-c4ccc(-c5ccccc5)cc4)c3C3CC3)nccc2nn1C [Compound 14-39]
IC50: 1 to 3 µM

O=C(Nc1ccncc1)c1nnn(-c2cccc(-c3cnn(C(F)F)c3)c2)c1C1CC1 [Compound 7-329]
IC50: > 3 µM

O=C(Nc1ccncc1)c1nnn(-c2cccc(-c3ccccc3F)c2)c1C1CC1 [Compound 7-298]
IC50: 1 to 3 µM

CC(=O)c1ccc(-n2nnc(C(=O)Nc3ccncc3)c2C2CC2)cc1 [Compound 2-10]
IC50: 1 to 3 µM

Cc1nn2ccccc2c1-c1ccc(-n2nnc(C(=O)NC3(c4cccnc4)CC3)c2C2CC2)cc1 [Compound 19-3]
IC50: 0.5 to 1 µM

O=C(Nc1ccncc1)c1nnn(-c2ccc(-c3cnoc3)cc2)c1C1CC1 [Compound 7-105]
IC50: 0.1 to 0.5 µM

Cc1ccc(-n2nnc(C(=O)Nc3ccncc3)c2C2CC2)cc1-c1ccccc1 [Compound 5-7]
IC50: 1 to 3 µM

Cc1ccc(C2(NC(=O)c3nnn(-c4ccc(-c5c(C)nn(C)c5C)cc4)c3C3CC3)CC2)cn1 [Compound 15-17]
IC50: 1 to 3 µM

CC(C)(C)c1c(C(=O)Nc2ccncc2)nnn1-c1ccc(-c2ccccc2)cc1 [Compound 4-12]
IC50: 1 to 3 µM

CN(C)c1cccc(-c2ccc(-n3nnc(C(=O)Nc4ccncc4)c3C3CC3)cc2)c1 [Compound 7-36]
IC50: 0.1 to 0.5 µM

Cc1c(-c2cccc(-n3nnc(C(=O)Nc4ccncc4)c3C3CC3)c2)cnn1C [Compound 7-305]
IC50: 1 to 3 µM

Cc1cc(-n2nnc(C(=O)Nc3ccncc3)c2C2CC2)ccc1-c1ccc(C#N)cc1 [Compound 7-319]
IC50: 1 to 3 µM

CCn1cc(CNC(=O)c2nnn(-c3ccc(-c4ccc(C#N)c(F)c4)cc3)c2C2CC2)cn1 [Compound 16-4]
IC50: 0.1 to 0.5 µM

CC(C)n1cc(CNC(=O)c2nnn(-c3ccc(-c4ccccc4)cc3)c2C2CC2)cn1 [Compound 14-32]
IC50: 1 to 3 µM

COc1ccc(C2(NC(=O)c3nnn(-c4ccc(-c5ccc(C#N)cc5C)cc4)c3C3CC3)CC2)cn1 [Compound 9-24]
IC50: 0.1 to 0.5 µM

Cc1ncccc1CNC(=O)c1nnn(-c2ccc(-c3c(C)nn(C)c3C)cc2)c1C1CC1 [Compound 15-11]
IC50: 0.1 to 0.5 µM

Cc1cc(NC(=O)c2nnn(-c3ccc(-c4cnn(Cc5ccccc5)c4)cc3)c2C2CC2)ccn1 [Compound 7-19]
IC50: < 0.1 µM

COc1cc(-c2ccc(C#N)cc2)ccc1-n1nnc(C(=O)Nc2ccnc(C)c2)c1C(C)C [Compound 17-12]
IC50: 0.1 to 0.5 µM

C[C@H](NC(=O)c1nnn(-c2ccc(-c3ccccc3)cc2)c1C1CC1)c1ccccc1 [Compound 14-86]
IC50: > 3 µM

Cc1cc(NC(=O)c2nnn(-c3ccc(-c4ccccc4)c(F)c3)c2C2CC2)ccn1 [Compound 7-205]
IC50: 1 to 3 µM
